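How tested: cells in 96-well plates exposed to compound for 48 hours at five concentrations. At the GI50, growth is halved. TGI marks complete inhibition of growth.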
Legend:
Experiment in all cases: NCI tumour cell line growth inhibition, 48 h
[1] = tested on: DMS 273 small cell lung
[2] = tested on: HOP-18 NSCLC
[3] = tested on: M19-MEL melanoma
[4] = tested on: LXFL 529 NSCLC
[5] = tested on: DLD-1 colon
[6] = tested on: SNB-78 CNS
[7] = tested on: P388/ADR leukemia
[8] = tested on: XF 498 CNS
[9] = tested on: SN12K1 renal
[10] = tested on: RXF-631 renal
[11] = tested on: P388 leukemia

SMILES | TGI [1] [µM] | TGI [2] [µM] | TGI [3] [µM] | TGI [4] [µM] | TGI [5] [µM] | TGI [6] [µM] | TGI [7] [µM] | TGI [8] [µM] | TGI [9] [µM] | TGI [10] [µM] | TGI [11] [µM] | GI50 [2] [pM]
[N-]=[N+]=NC(c1cn(C2CC(O)C(CO)O2)c(=O)[nH]c1=O)C(Br)Br (stereo unspecified) | > 100 | > 100 | > 100 | > 100 | > 100 | > 100 | – | – | – | – | – | –
Clc1ccc(C(c2ccccc2Cl)C(Cl)Cl)cc1 (stereo unspecified) | 36 | 21.6 | 39 | 38.2 | 38.6 | 41.5 | 44.2 | 37.2 | 36.9 | 35.8 | 38.2 | –
CCN(CC)CCCNc1ccc2nc(C)n3c4ccc(O)cc4c(=O)c1c23 | 13.4 | 25.7 | 23.8 | 19.3 | 16.2 | 19.6 | – | 23.3 | – | 17.4 | – | –
N#CN/C(N)=N/C/N=C(\N)NC#N | > 100 | > 100 | > 100 | > 100 | > 100 | > 100 | – | – | – | > 100 | – | –
COc1ccc(C(=O)O[C@H]2[C@@H]3C=CO[C@@H](OC4OC(CO)C(O)C(O)C4O)[C@@H]3[C@@]3(CO)O[C@@H]23)cc1O (stereo partly specified) | > 100 | – | > 100 | > 100 | > 100 | > 100 | – | > 100 | – | > 100 | – | –
CCC1(N=[N+]=[N-])C(=O)c2ccccc2N(C)C1=O (stereo unspecified) | > 100 | > 100 | > 100 | > 100 | > 100 | > 100 | – | – | – | – | – | –
Cc1c2ccncc2cc2c1[nH]c1ccccc12 | 4.96 | 7.35 | 10.9 | – | 38.5 | 93.3 | 7.46 | 1.89 | 9.44 | – | 5.52 | –
CC(=O)OCC1OC(n2cc(F)c(=O)[nH]c2=O)C(NC(=O)OCc2ccccc2)C(OC(C)=O)C1OC(C)=O (stereo unspecified) | > 100 | > 100 | > 100 | – | > 100 | > 100 | > 100 | > 100 | > 100 | – | > 100 | –
NC1=C(NC(=O)Cc2ccccc2F)C(=O)c2ccccc2C1=O | > 100 | > 100 | 24.5 | – | 52.9 | – | – | – | – | – | – | –
O=c1cc(CO)oc2c3c(cc(O)c12)OCC(COC1OC(CO)C(O)C(O)C1O)=CC3 (stereo unspecified) | > 100 | > 100 | > 100 | > 100 | > 100 | > 100 | – | – | – | – | – | –
Brc1ccc(C[P+]2(c3ccccc3)CCCCC2)cc1 | > 100 | > 100 | 76.4 | > 100 | > 100 | 84.2 | – | – | – | – | – | –
NC(=S)/N=C(/c1nc2ccc(Cl)cc2[nH]c1=O)C(O)c1ccccc1Cl (stereo unspecified) | > 100 | > 100 | – | > 100 | > 100 | – | – | > 100 | – | – | – | –
CN(Cc1cnc2nc(N)nc(N)c2n1)c1ccc(C(=O)N[C@@H](CCC(=O)O)C(=O)O)cc1 | 210 | – | > 250 | > 250 | > 250 | 213 | 29.4 | 184 | 191 | – | 13.8 | 0.714
CCOc1ccc2[nH]c3c(C)c4ccncc4c(C)c3c2c1 | 1.64 | – | 3.1 | 1.98 | 1.96 | 3.12 | – | 2.16 | – | 2.61 | – | –
